Reference: ChEMBL document CHEMBL4507257, “Data for DCP probe ABT-100” (2021)

How the values were obtained:
[1] = biological target: Serine/threonine-protein kinase DCLK2 (Homo sapiens) (UniProt Q8N568); details: Compound concentration 1000.0 nM
[2] = biological target: Serine/threonine-protein kinase WNK2 (Homo sapiens) (UniProt Q9Y3S1); details: Compound concentration 1000.0 nM
[3] = biological target: cGMP-dependent protein kinase 1 (Homo sapiens) (UniProt Q13976); details: Compound concentration 1000.0 nM
[4] = biological target: Cyclin-dependent kinase 4 (Homo sapiens) (UniProt P11802); details: Compound concentration 1000.0 nM
[5] = biological target: Calcium-dependent protein kinase 1 (Plasmodium falciparum) (UniProt P62344); details: Compound concentration 1000.0 nM
[6] = biological target: Dual specificity tyrosine-phosphorylation-regulated kinase 1B (Homo sapiens) (UniProt Q9Y463); details: Compound concentration 1000.0 nM
[7] = biological target: Serine/threonine-protein kinase Nek11 (Homo sapiens) (UniProt Q8NG66); details: Compound concentration 1000.0 nM
[8] = biological target: Leucine-rich repeat serine/threonine-protein kinase 2 (Homo sapiens) (UniProt Q5S007); details: Compound concentration 1000.0 nM
[9] = biological target: Receptor tyrosine-protein kinase erbB-2 (Homo sapiens) (UniProt P04626); details: Compound concentration 1000.0 nM
[10] = system: Tyrosine-protein kinase ABL1 (Homo sapiens), P00519 [F317L]; details: Compound concentration 1000.0 nM
[11] = biological target: Non-receptor tyrosine-protein kinase TNK1 (Homo sapiens) (UniProt Q13470); details: Compound concentration 1000.0 nM
[12] = biological target: Calcium/calmodulin-dependent protein kinase type 1G (Homo sapiens) (UniProt Q96NX5); details: Compound concentration 1000.0 nM
[13] = biological target: Myosin light chain kinase (Homo sapiens) (UniProt Q32MK0); details: Compound concentration 1000.0 nM
Myosin light chain kinase (Homo sapiens), sequence (Q32MK0 whole entry): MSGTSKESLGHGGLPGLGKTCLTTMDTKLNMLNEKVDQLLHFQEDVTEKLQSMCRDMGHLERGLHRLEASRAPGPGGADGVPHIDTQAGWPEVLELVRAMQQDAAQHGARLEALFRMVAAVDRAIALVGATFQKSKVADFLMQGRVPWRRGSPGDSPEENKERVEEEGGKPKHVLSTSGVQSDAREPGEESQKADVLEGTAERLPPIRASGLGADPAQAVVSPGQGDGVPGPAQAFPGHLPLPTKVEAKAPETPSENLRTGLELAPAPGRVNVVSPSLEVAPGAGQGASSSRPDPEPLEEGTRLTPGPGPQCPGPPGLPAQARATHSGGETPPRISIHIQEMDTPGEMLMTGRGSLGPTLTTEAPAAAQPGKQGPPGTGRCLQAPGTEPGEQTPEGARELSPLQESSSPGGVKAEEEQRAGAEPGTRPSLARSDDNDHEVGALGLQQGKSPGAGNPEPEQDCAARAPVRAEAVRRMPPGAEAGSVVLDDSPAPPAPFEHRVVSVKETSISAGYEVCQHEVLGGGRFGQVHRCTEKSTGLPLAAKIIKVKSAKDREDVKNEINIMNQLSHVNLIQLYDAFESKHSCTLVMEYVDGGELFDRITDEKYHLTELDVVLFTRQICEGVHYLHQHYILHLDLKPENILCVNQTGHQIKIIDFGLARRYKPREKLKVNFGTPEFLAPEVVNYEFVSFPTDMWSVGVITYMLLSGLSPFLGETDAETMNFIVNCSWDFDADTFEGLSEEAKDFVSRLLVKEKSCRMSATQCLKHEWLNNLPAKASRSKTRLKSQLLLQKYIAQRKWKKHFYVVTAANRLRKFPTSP

[14] = biological target: cGMP-dependent protein kinase 2 (Homo sapiens) (UniProt Q13237); details: Compound concentration 1000.0 nM
[15] = biological target: Tyrosine-protein kinase CSK (Homo sapiens) (UniProt P41240); details: Compound concentration 1000.0 nM
[16] = biological target: Serine/threonine-protein kinase ULK1 (Homo sapiens) (UniProt O75385); details: Compound concentration 1000.0 nM
[17] = system: Phosphatidylinositol 4,5-bisphosphate 3-kinase catalytic subunit alpha isoform (Homo sapiens), P42336 [H1047L]; details: Compound concentration 1000.0 nM
Phosphatidylinositol 4,5-bisphosphate 3-kinase catalytic subunit alpha isoform (Homo sapiens), P42336 [H1047L], sequence (P42336 whole entry H1047L, canonical isoform): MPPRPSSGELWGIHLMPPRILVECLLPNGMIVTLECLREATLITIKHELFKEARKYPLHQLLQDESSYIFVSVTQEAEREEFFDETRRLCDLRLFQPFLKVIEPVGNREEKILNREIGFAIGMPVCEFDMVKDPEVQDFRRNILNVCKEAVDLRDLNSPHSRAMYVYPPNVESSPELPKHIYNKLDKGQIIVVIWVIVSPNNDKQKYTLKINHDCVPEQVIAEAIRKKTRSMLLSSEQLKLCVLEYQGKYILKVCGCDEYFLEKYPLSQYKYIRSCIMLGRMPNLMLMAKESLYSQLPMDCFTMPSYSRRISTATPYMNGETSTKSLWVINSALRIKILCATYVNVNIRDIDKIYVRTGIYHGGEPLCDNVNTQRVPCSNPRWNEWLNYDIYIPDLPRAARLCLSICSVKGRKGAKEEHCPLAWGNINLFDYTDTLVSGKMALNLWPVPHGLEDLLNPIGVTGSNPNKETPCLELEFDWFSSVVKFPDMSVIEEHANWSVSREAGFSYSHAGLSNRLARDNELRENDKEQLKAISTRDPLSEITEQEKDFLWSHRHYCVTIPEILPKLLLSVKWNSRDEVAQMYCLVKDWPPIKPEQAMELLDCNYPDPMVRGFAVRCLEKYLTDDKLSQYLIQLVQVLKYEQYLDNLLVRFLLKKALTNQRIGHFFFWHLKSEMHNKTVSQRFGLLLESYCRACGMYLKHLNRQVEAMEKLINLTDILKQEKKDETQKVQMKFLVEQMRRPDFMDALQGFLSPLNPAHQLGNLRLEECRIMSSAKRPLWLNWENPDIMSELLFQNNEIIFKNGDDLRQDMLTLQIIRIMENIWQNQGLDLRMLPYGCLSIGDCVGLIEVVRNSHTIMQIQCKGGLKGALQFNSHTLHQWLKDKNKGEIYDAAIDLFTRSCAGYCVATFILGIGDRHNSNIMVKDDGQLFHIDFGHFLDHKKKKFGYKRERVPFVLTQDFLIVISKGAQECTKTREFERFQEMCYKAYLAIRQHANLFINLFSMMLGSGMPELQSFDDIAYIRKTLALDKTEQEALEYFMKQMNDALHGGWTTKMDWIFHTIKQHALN

[18] = biological target: G protein-coupled receptor kinase 4 (Homo sapiens) (UniProt P32298); details: Compound concentration 1000.0 nM
[19] = biological target: Receptor tyrosine-protein kinase erbB-3 (Homo sapiens) (UniProt P21860); details: Compound concentration 1000.0 nM
[20] = biological target: Serine/threonine-protein kinase 3 (Homo sapiens) (UniProt Q13188); details: Compound concentration 1000.0 nM
[21] = biological target: Dual specificity protein kinase TTK (Homo sapiens) (UniProt P33981); details: Compound concentration 1000.0 nM
[22] = biological target: 5-hydroxytryptamine receptor 7 (Homo sapiens) (UniProt P34969); details: Compound concentration 10.0 uM
[23] = biological target: Phosphatidylinositol 5-phosphate 4-kinase type-2 beta (Homo sapiens) (UniProt P78356); details: Compound concentration 1000.0 nM
[24] = biological target: Serine/threonine-protein kinase Nek1 (Homo sapiens) (UniProt Q96PY6); details: Compound concentration 1000.0 nM
[25] = biological target: Serine/threonine-protein kinase OSR1 (Homo sapiens) (UniProt O95747); details: Compound concentration 1000.0 nM
[26] = system: Receptor-type tyrosine-protein kinase FLT3 (Homo sapiens), P36888 [UNDEFINED MUTATION]; details: Compound concentration 1000.0 nM
[27] = biological target: Serine/threonine-protein kinase NLK (Homo sapiens) (UniProt Q9UBE8); details: Compound concentration 1000.0 nM
[28] = biological target: Insulin receptor (Homo sapiens) (UniProt P06213); details: Compound concentration 1000.0 nM
[29] = biological target: Ephrin type-B receptor 6 (Homo sapiens) (UniProt O15197); details: Compound concentration 1000.0 nM
[30] = biological target: Casein kinase II subunit alpha (Homo sapiens) (UniProt P68400); details: Compound concentration 1000.0 nM
[31] = biological target: Misshapen-like kinase 1 (Homo sapiens) (UniProt Q8N4C8); details: Compound concentration 1000.0 nM
[32] = biological target: 5'-AMP-activated protein kinase catalytic subunit alpha-2 (Homo sapiens) (UniProt P54646); details: Compound concentration 1000.0 nM
[33] = biological target: Tyrosine-protein kinase Mer (Homo sapiens) (UniProt Q12866); details: Compound concentration 1000.0 nM
[34] = biological target: Ribosomal protein S6 kinase alpha-6 (Homo sapiens) (UniProt Q9UK32); details: Compound concentration 1000.0 nM
[35] = biological target: Receptor-type tyrosine-protein kinase FLT3 (Homo sapiens) (UniProt P36888); details: Compound concentration 1000.0 nM
[36] = biological target: Eukaryotic translation initiation factor 2-alpha kinase 1 (Homo sapiens) (UniProt Q9BQI3); details: Compound concentration 1000.0 nM
[37] = system: Hepatocyte growth factor receptor (Homo sapiens), P08581 [Y1235D]; details: Compound concentration 1000.0 nM
[38] = biological target: Tyrosine-protein kinase Fes/Fps (Homo sapiens) (UniProt P07332); details: Compound concentration 1000.0 nM
Tyrosine-protein kinase Fes/Fps (Homo sapiens), sequence (P07332 whole entry): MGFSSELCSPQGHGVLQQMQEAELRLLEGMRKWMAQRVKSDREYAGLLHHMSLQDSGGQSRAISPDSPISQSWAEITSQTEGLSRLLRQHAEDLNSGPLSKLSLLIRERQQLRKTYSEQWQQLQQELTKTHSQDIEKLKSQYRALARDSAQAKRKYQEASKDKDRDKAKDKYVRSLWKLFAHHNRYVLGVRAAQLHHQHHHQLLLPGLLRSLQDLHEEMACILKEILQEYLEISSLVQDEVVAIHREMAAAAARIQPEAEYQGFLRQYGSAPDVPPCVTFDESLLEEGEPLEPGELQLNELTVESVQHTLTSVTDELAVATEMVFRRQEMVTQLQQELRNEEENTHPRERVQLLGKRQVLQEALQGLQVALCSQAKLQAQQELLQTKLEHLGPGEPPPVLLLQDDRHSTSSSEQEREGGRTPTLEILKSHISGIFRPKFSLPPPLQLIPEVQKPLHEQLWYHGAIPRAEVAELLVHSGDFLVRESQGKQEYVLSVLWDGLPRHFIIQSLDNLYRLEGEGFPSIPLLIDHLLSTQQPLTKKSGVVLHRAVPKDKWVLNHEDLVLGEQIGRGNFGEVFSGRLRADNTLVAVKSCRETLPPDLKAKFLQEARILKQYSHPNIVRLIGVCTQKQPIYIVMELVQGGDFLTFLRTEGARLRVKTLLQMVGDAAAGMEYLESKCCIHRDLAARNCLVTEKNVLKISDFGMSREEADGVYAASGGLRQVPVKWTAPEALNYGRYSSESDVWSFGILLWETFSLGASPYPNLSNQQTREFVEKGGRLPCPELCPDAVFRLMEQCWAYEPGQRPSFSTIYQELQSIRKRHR

[39] = biological target: Dual specificity mitogen-activated protein kinase kinase 4 (Homo sapiens) (UniProt P45985); details: Compound concentration 1000.0 nM
[40] = biological target: Ribosomal protein S6 kinase beta-1 (Homo sapiens) (UniProt P23443); details: Compound concentration 1000.0 nM
[41] = system: Tyrosine-protein kinase ABL1 (Homo sapiens), P00519 [T315I]; details: Compound concentration 1000.0 nM
[42] = biological target: Protein kinase C theta type (Homo sapiens) (UniProt Q04759); details: Compound concentration 1000.0 nM
[43] = biological target: Ephrin type-A receptor 4 (Homo sapiens) (UniProt P54764); details: Compound concentration 1000.0 nM
[44] = biological target: Alpha-2B adrenergic receptor (Homo sapiens) (UniProt P18089); details: Compound concentration 10.0 uM
[45] = biological target: TRAF2 and NCK-interacting protein kinase (Homo sapiens) (UniProt Q9UKE5); details: Compound concentration 1000.0 nM

Serine/threonine-protein kinase WNK2 (Homo sapiens), sequence (Q9Y3S1 whole entry): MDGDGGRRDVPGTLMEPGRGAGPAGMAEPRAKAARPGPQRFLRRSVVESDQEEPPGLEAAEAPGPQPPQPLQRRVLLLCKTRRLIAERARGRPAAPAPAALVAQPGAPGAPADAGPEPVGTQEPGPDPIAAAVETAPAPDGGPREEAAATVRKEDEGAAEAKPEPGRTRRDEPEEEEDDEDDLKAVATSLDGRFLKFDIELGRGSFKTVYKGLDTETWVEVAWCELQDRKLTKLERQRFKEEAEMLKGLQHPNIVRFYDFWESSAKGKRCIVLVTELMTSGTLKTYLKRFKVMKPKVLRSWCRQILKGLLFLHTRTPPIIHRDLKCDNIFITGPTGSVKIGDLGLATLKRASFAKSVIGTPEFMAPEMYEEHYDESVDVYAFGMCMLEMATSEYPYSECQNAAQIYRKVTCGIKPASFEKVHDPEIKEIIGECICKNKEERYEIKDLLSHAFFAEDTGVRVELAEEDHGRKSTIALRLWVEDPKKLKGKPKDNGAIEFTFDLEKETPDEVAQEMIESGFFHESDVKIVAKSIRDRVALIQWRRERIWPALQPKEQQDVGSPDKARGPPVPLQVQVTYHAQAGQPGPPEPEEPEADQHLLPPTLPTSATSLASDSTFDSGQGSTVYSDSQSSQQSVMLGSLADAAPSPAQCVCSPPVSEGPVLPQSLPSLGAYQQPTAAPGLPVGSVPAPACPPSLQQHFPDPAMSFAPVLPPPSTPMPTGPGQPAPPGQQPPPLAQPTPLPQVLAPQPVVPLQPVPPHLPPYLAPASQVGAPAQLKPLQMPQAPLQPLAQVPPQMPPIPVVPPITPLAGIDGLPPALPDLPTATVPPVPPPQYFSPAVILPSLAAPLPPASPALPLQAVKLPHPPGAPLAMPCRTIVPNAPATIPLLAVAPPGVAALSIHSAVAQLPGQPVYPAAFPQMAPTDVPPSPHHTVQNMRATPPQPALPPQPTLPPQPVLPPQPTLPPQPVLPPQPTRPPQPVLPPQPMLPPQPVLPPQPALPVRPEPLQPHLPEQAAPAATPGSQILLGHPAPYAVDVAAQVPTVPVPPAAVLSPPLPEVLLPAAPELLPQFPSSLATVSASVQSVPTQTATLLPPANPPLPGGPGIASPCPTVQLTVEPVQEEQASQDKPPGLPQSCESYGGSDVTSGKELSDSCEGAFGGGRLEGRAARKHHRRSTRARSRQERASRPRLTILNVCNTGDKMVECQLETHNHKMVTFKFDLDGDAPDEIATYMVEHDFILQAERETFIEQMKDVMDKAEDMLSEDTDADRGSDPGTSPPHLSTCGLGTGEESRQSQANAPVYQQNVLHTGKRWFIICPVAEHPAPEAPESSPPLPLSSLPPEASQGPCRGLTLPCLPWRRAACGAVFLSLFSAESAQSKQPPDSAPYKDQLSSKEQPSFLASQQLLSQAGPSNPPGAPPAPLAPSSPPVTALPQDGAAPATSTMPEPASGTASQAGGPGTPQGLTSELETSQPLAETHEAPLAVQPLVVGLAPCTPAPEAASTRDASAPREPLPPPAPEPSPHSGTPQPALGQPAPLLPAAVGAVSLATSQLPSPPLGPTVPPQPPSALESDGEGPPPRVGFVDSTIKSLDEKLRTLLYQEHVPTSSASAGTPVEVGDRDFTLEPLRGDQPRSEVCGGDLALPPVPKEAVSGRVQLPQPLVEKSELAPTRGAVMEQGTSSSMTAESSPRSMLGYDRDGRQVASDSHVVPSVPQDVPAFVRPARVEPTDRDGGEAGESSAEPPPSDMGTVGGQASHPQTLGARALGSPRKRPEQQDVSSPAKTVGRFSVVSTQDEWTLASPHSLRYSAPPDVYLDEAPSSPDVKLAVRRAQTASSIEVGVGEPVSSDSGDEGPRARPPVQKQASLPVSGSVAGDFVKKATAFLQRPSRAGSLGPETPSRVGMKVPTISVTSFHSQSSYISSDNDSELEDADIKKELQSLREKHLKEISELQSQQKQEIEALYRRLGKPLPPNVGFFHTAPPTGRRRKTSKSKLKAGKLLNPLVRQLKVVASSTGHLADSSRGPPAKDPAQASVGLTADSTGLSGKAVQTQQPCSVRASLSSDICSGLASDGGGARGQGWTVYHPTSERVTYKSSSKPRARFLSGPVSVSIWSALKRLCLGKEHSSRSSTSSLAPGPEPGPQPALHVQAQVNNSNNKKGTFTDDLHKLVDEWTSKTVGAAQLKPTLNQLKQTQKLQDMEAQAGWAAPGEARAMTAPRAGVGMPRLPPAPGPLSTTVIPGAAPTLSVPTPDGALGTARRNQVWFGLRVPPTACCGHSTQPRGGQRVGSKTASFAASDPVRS

SMILES: Cn1cncc1[C@@](O)(COc1ccc(C#N)cc1-c1ccc(OC(F)(F)F)cc1)c1ccc(C#N)cc1 [A-108]
- residual activity [1]: 100%
- residual activity [2]: 84%
- residual activity [3]: 94%
- residual activity [4]: 100%
- residual activity [5]: 75%
- residual activity [6]: 38%
- residual activity [7]: 100%
- residual activity [8]: 100%
- residual activity [9]: 94%
- residual activity [10]: 100%
- residual activity [11]: 88%
- residual activity [12]: 85%
- residual activity [13]: 96%
- residual activity [14]: 87%
- residual activity [15]: 100%
- residual activity [16]: 95%
- residual activity [17]: 100%
- residual activity [18]: 56%
- residual activity [19]: 89%
- residual activity [20]: 95%
- residual activity [21]: 100%
- inhibition [22]: 15%
- residual activity [23]: 100%
- residual activity [24]: 100%
- residual activity [25]: 75%
- residual activity [26]: 80%
- residual activity [27]: 100%
- residual activity [28]: 84%
- residual activity [29]: 100%
- residual activity [30]: 100%
- residual activity [31]: 100%
- residual activity [32]: 87%
- residual activity [33]: 69%
- residual activity [34]: 94%
- residual activity [35]: 100%
- residual activity [36]: 100%
- residual activity [37]: 100%
- residual activity [38]: 100%
- residual activity [39]: 100%
- residual activity [40]: 94%
- residual activity [41]: 100%
- residual activity [42]: 100%
- residual activity [43]: 12%
- inhibition [44]: 20%
- residual activity [45]: 99%

SMILES: Cn1cncc1[C@](O)(COc1ccc(C#N)cc1-c1ccc(OC(F)(F)F)cc1)c1ccc(C#N)cc1 [ABT-100]
- residual activity [1]: 98%
- residual activity [2]: 67%
- residual activity [3]: 91%
- residual activity [4]: 100%
- residual activity [5]: 88%
- residual activity [6]: 58%
- residual activity [7]: 100%
- residual activity [8]: 100%
- residual activity [9]: 100%
- residual activity [10]: 100%
- residual activity [11]: 56%
- residual activity [12]: 96%
- residual activity [13]: 100%
- residual activity [14]: 100%
- residual activity [15]: 82%
- residual activity [16]: 100%
- residual activity [17]: 100%
- residual activity [18]: 62%
- residual activity [19]: 87%
- residual activity [20]: 77%
- residual activity [21]: 100%
- inhibition [22]: 9.15%
- residual activity [23]: 100%
- residual activity [24]: 80%
- residual activity [25]: 100%
- residual activity [26]: 69%
- residual activity [27]: 89%
- residual activity [28]: 100%
- residual activity [29]: 95%
- residual activity [30]: 63%
- residual activity [31]: 94%
- residual activity [32]: 100%
- residual activity [33]: 84%
- residual activity [34]: 91%
- residual activity [35]: 100%
- residual activity [36]: 100%
- residual activity [37]: 78%
- residual activity [38]: 100%
- residual activity [39]: 89%
- residual activity [40]: 96%
- residual activity [41]: 100%
- residual activity [42]: 79%
- residual activity [43]: 100%
- inhibition [44]: 8.46%
- residual activity [45]: 81%
